US10174067B2, “Type of cytidine derivative and application thereof” (priority 2014, dated 2019)
Marks after values point to notes of the source that are not given here.

What was measured:
[1] = Outline: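 Test compounds formulated in ethanol:Cremophor EL:saline (5:5:90), vehicle alone as control, in HCT-116 subcutaneous xenografts in female Balb/c nudes (6/group, start 60–150 mm^3). Weight measured three times weekly, tumour weight at end; unpaired t-test on Mean±SEM data.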
[2] = tested on: HCT-116 colon cancer xenografts; assay: Tumor growth inhibition of HCT-116 colon cancer xenografts in tumor-bearing nude mice (tumor volume, TGI %, RTV, T/C %); format: in vivo, Balb/c Nude mice; conditions: G10-G16 groups, single IP 400 mg/kg
Outline: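 Tumors in HCT-116-inoculated nude mice were sized three times weekly by diameter, with volume V=3/4π(D/2)^3. Significance set at P<0.05.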

[3] = tested on: ICR mice; assay: in vivo; conditions: female ICR mice; single-dose ip
Outline: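 MTD, the dose without mortality, body-weight loss over 10% from Day 0 or marked adverse signs, was found by stepwise up/down single intraperitoneal dosing of female SPF ICR mice. Vehicle: ethanol:Cremophor EL:saline 5:5:90. Animals weighed daily and clinically checked twice daily for up to 14 days.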

[4] = Day 1, G10-G16 groups, single IP 400 mg/kg, Mean±SEM
[5] = Day 2, G10-G16 groups, single IP 400 mg/kg, Mean±SEM
[6] = Day 4, G10-G16 groups, single IP 400 mg/kg, Mean±SEM
[7] = Day 7, G10-G16 groups, single IP 400 mg/kg, Mean±SEM
[8] = Day 9, G10-G16 groups, single IP 400 mg/kg, Mean±SEM
[9] = Day 11, G10-G16 groups, single IP 400 mg/kg, Mean±SEM
[10] = Day 14, G10-G16 groups, single IP 400 mg/kg, Mean±SEM
[11] = Day 16, G10-G16 groups, single IP 400 mg/kg, Mean±SEM
[12] = Day 18, G10-G16 groups, single IP 400 mg/kg, Mean±SEM
[13] = Day 21, G10-G16 groups, single IP 400 mg/kg, Mean±SEM
[14] = Day 23, G10-G16 groups, single IP 400 mg/kg, Mean±SEM
[15] = Day 25, G10-G16 groups, single IP 400 mg/kg, Mean±SEM
[16] = Day 28, G10-G16 groups, single IP 400 mg/kg, Mean±SEM
[17] = Day 30, G10-G16 groups, single IP 400 mg/kg, Mean±SEM

For `CCCCOC(=O)Nc1nc(=O)n(C2OC(COC(=O)COc3nc(Cl)c(Cl)cc3Cl)C(O)C2(F)F)cc1Br` (stereo not shown) [Compound G16], the “Weight change rate, Day 0” value ([1]; Day 0, G10-G16 groups, single IP 400 mg/kg) was 0.00%, the “Weight of mice, Day 0” value ([1]; Day 0, G10-G16 groups, single IP 400 mg/kg, Mean±SEM) was 20.60 ± 0.23 g and the “Weight change rate, Day 1” value [1, 4] was −0.99 ± 0.59%. The “Weight of mice, Day 1” value [1, 4] was 20.40 ± 0.32 g, the “Weight change rate, Day 2” value [1, 5] was −0.79 ± 0.84% and the “Weight of mice, Day 2” value [1, 5] was 20.45 ± 0.30 g. For the same compound, the “Weight change rate, Day 4” value [1, 6] was −0.38 ± 1.13%, the “Weight of mice, Day 4” value [1, 6] was 20.62 ± 0.28 g and the “Weight change rate, Day 7” value [1, 7] was −1.73 ± 0.99 %. For the same compound, the “Weight of mice, Day 7” value [1, 7] was 20.43 ± 0.27 g, the “Weight change rate, Day 9” value [1, 8] was 1.99 ± 1.71 % and the “Weight of mice, Day 9” value [1, 8] was 21.03 ± 0.23 g. The “Weight change rate, Day 11” value [1, 9] was 3.60 ± 1.31%, the “Weight of mice, Day 11” value [1, 9] was 21.32 ± 0.26 g and the “Weight change rate, Day 14” value [1, 10] was 1.54 ± 2.06 %. For the same compound, the “Weight of mice, Day 14” value [1, 10] was 20.87 ± 0.22 g, the “Weight change rate, Day 16” value [1, 11] was 2.61 ± 2.41% and the “Weight of mice, Day 16” value [1, 11] was 21.02 ± 0.33 g. For the same compound, the “Weight change rate, Day 18” value [1, 12] was 6.99 ± 2.87 %, the “Weight of mice, Day 18” value [1, 12] was 21.80 ± 0.44 g and the “Weight change rate, Day 21” value [1, 13] was 5.42 ± 2.41 %. The “Weight of mice, Day 21” value [1, 13] was 21.55 ± 0.34 g, the “Day 22 Mortality” value ([1]; Day 22, single IP dose (mg/kg)) was 0% and the “Weight change rate, Day 23” value [1, 14] was 7.14 ± 3.88%. For the same compound, the “Weight of mice, Day 23” value [1, 14] was 21.78 ± 0.58 g, the “Weight change rate, Day 25” value [1, 15] was 7.62 ± 3.76% and the “Weight of mice, Day 25” value [1, 15] was 21.83 ± 0.59 g. The “Weight change rate, Day 28” value [1, 16] was 3.66 ± 3.27%, the “Weight of mice, Day 28” value [1, 16] was 21.27 ± 0.43 g and the “Weight change rate, Day 30” value [1, 17] was 4.94 ± 2.45%. For the same compound, the “Weight of mice, Day 30” value [1, 17] was 21.20 ± 0.60 g, the clinical symptoms ([1]; after single IP dose, compared with model control group) was “no significant differences in clinical symptoms” and the “Day 0 (RTV)” value ([2]; Day 0) was 1.00. For the same compound, the “Tumor volume, Day 0” value ([2]; Day 0, Mean±SEM) was 52.57 ± 10.93** mm^3, the “Day 1 (TGI %)” value ([2]; Day 1) was 63.52% and the “Day 1 (RTV)” value ([2]; Day 1, Mean±SEM) was 1.25 ± 0.20. The “Tumor volume, Day 1” value ([2]; Day 1, Mean±SEM) was 65.85 ± 18.30** mm^3, the “Day 2 (TGI %)” value ([2]; Day 2) was 56.02% and the “Day 2 (RTV)” value ([2]; Day 2, Mean±SEM) was 2.10 ± 0.74. For the same compound, the “Tumor volume, Day 2” value ([2]; Day 2, Mean±SEM) was 97.57 ± 24.94** mm^3, the “Day 4 (TGI %)” value ([2]; Day 4) was 52.31% and the “Day 4 (RTV)” value ([2]; Day 4, Mean±SEM) was 3.10 ± 1.46. For the same compound, the “Day 7 (TGI %)” value ([2]; Day 7) was 45.07%, the “Day 7 (RTV)” value ([2]; Day 7, Mean±SEM) was 5.12 ± 2.41 and the “Tumor volume, Day 7” value ([2]; Day 7, Mean±SEM) was 237.57 ± 74.65* mm^3. For the same compound, the “Day 9 (TGI %)” value ([2]; Day 9) was 33.79%, the “Day 9 (RTV)” value ([2]; Day 9, Mean±SEM) was 8.09 ± 3.62 and the “Tumor volume, Day 9” value ([2]; Day 9, Mean±SEM) was 390.87 ± 115.68 mm^3. The “Day 11 (TGI %)” value ([2]; Day 11) was 36.38%, the “Day 11 (RTV)” value ([2]; Day 11, Mean±SEM) was 12.66 ± 5.21 and the “Tumor volume, Day 11” value ([2]; Day 11, Mean±SEM) was 621.03 ± 173.32 mm^3. For the same compound, the “Day 14 (TGI %)” value ([2]; Day 14) was 27.91%, the “Day 14 (RTV)” value ([2]; Day 14, Mean±SEM) was 20.81 ± 7.22 and the “Tumor volume, Day 14” value ([2]; Day 14, Mean±SEM) was 1038.23 ± 262.72 mm^3. For the same compound, the “Day 16 (TGI %)” value ([2]; Day 16) was 27.25%, the “Day 16 (RTV)” value ([2]; Day 16, Mean±SEM) was 26.35 ± 8.64 and the “Tumor volume, Day 16” value ([2]; Day 16, Mean±SEM) was 1317.52 ± 322.74 mm^3. For the same compound, the “Day 18 (TGI %)” value ([2]; Day 18) was 21.59%, the “Day 18 (RTV)” value ([2]; Day 18, Mean±SEM) was 31.97 ± 10.14 and the “Tumor volume, Day 18” value ([2]; Day 18, Mean±SEM) was 1566.87 ± 378.64 mm^3. The “Day 21 (TGI %)” value ([2]; Day 21) was 23.19%, the “Day 21 (RTV)” value ([2]; Day 21, Mean±SEM) was 38.61 ± 9.84 and the “Tumor volume, Day 21” value ([2]; Day 21, Mean±SEM) was 1877.91 ± 388.81 mm^3. The “Day 23 (TGI %)” value ([2]; Day 23) was 18.55%, the “Day 23 (RTV)” value ([2]; Day 23, Mean±SEM) was 39.81 ± 9.58 and the “Tumor volume, Day 23” value ([2]; Day 23, Mean±SEM) was 1923.55 ± 392.05 mm^3. For the same compound, the “Day 25 (TGI %)” value ([2]; Day 25) was 18.29%, the “Day 25 (RTV)” value ([2]; Day 25, Mean±SEM) was 43.89 ± 10.29 and the “Tumor volume, Day 25” value ([2]; Day 25, Mean±SEM) was 2110.15 ± 421.51 mm^3. The “Day 28 (TGI %)” value ([2]; Day 28) was 38.94%, the “Day 28 (RTV)” value ([2]; Day 28, Mean±SEM) was 39.62 ± 10.42 and the “Tumor volume, Day 28” value ([2]; Day 28, Mean±SEM) was 1642.01 ± 659.32 mm^3. The “Day 30 (TGI %)” value ([2]; Day 30) was 52.84%, the “Day 30 (RTV)” value ([2]; Day 30, Mean±SEM) was 38.70 ± 10.60 and the “Tumor volume, Day 30” value ([2]; Day 30, Mean±SEM) was 1323.36 ± 626.45 mm^3. For the same compound, the “dose that could be tolerated (maximum tolerated dose, MTD)” value [3] was 400 mg/kg.
